Reference: patent publication US20130287890A1, “INHIBITOR OF THE PRODUCTION OF ADVANCED GLYCATION END PRODUCTS” (UENO FINE CHEMICALS INDUSTRY, LTD., priority 2012, published 2013)

Experiments:
human RAGE = molecular target: T1, human RAGE (Homo sapiens, UniProt Q15109); test: RAGE agonist activity of reaction samples (120° C., 60 minutes), NF-κB luciferase assay in C6 glioma cells; type: cell-based, rat; conditions: Test Example 2
T1 construct: human RAGE plasmid (including full-length human RAGE cDNA); expressed in transfected cells; host or cells: C6 glioma cells carrying pNF-κB-Luc plasmid and human RAGE plasmid
T1 sequence (Q15109 23-404): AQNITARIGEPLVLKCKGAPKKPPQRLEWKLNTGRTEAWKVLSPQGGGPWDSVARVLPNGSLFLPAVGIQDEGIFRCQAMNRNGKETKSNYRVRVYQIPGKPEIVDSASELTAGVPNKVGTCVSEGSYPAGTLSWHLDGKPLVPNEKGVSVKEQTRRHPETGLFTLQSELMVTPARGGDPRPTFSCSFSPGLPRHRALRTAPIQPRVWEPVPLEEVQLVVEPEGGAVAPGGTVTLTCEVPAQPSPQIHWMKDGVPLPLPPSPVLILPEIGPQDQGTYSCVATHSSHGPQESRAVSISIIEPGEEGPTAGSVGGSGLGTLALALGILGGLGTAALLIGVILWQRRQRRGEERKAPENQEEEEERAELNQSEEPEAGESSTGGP
Procedure: (§1) Food-derived proteins, carbohydrates and a phosphate buffer solution were charged in a 30 mL glass test tube in each amount shown in Table 6, followed by sealing and stirring, and then the mixture was reacted in an autoclave at 120° C. for 60 minutes. Next, the reactant was fractionated by centrifugation at 3,000 rpm for 3 hours using an ultrafiltration unit (VIVA SPIN 20, manufactured by Sartorius Corporation). The obtained low molecular weight fraction was used as a sample for determination of 3-DG, while the obtained high molecular weight fraction was used as a sample for the determination of fluorescent AGEs, RAGE agonist activity and RAGE antagonist activity. Food-derived proteins and carbohydrates used are as follows:
Using Luciferase Assay System (manufactured by Promega Corporation), evaluation of RAGE agonist activity was performed. (Day 1) According to the methods disclosed in Diabetes, 2006, vol. 55, pp. 2510-2522, C6 glioma cells into which pNF-κB-Luc plasmid (manufactured by Stratagene Corporation) and human RAGE plasmid (including full-length human RAGE cDNA) have been introduced were seeded at 100 μL/well into a 96-well plate and cultured in a CO2 incubator until the cells were confluent. For the culture, 10% FBS/DMEM medium was used. (Day 2) The medium was removed, and after wells were washed with 300 μL of serum-free DMEM medium, 100 μL of 0.1% FBS/DMEM medium was slowly added. Then, the medium was incubated overnight in a CO2 incubator. (Day 3) The sample was diluted using the medium, and 50 μL of the diluted sample was added to each well. AGE-BSA in which AGE was formed with glyceraldehydes (50 μg/mL) was added to a control well. After incubation in a CO2 incubator for 4 hours, the medium was removed and wells were washed 2 times with 300 μL of PBS (−). Then, 25 μL of 1× lysis buffer was added on ice. After the plate was shaken for 15 seconds, 20 μL of lysate was charged in a new white plate. Further 100 μL of a luciferase assay reagent was added, and a […] was measured by a luminometer. Using 5 μL of lysate, quantitative determination of protein was also performed.

fluorescent AGEs = test: Quantitative determination of fluorescent AGEs (relative to perylene) after reaction at 120° C. for 60 minutes; type: biochemical; conditions: for Fluorescent AGEs: 120° C., 60 minutes
Procedure: Amino acids, carbohydrates and a phosphate buffer solution were charged in a 30 mL glass test tube in each amount shown in Table 1, followed by sealing and stirring. […] The filtrate thus obtained was used as a sample. The amino acids and carbohydrates used are as follows. After weighing 2.5 mg of a standard substance perylene, the standard substance perylene was fully dissolved in 50 mL of deaerated ethanol added thereto to prepare a perylene solution. The perylene solution diluted to the concentration of 10 μM was exposed to excitation light with a wavelength of 386 nm and then the area was calculated by measuring a fluorescence intensity ranging from 410 to 600 nm. […] Food-derived proteins, carbohydrates and a phosphate buffer solution were charged in a 30 mL glass test tube in each amount shown in Table 6, followed by sealing and stirring, and then the mixture was reacted in an autoclave at 120° C. for 60 minutes. Next, the reactant was fractionated by centrifugation at 3,000 rpm for 3 hours using an ultrafiltration unit (VIVA SPIN 20, manufactured by Sartorius Corporation). […] Food-derived proteins and carbohydrates used are as follows: After 0.4 g of a high molecular weight fraction and 8 mL of 6N hydrochloric acid were charged in an ampule and the air in the ampule was replaced with nitrogen, hydrolysis was performed at 110° C. for 16 hours in a heat block. After reaction, 8 mL of 5N sodium hydroxide was added, and pH was adjusted using 1N hydrochloric acid and 1N sodium hydroxide to make pH within a range of 7.2 to 7.6. […] Using the thus obtained filtrate as a sample, fluorescent AGEs were quantitatively determined using the following methods. After weighing 2.5 mg of a standard substance perylene, the standard substance perylene was fully dissolved in 10 mL of deaerated ethanol added thereto to prepare a perylene solution. The perylene solution diluted to the concentration of 10 μM was exposed to excitation light with a wavelength of 386 nm and then the area was calculated by measuring a fluorescence intensity ranging from 410 to 600 nm.

3-DG = test: Quantitative determination of 3-DG (HPLC) after reaction of amino acids or food-derived proteins with carbohydrates at 120° C. for 60 minutes; type: biochemical; conditions: for 3-DG: 120° C., 60 minutes
Procedure: Amino acids, carbohydrates and a phosphate buffer solution were charged in a 30 mL glass test tube in each amount shown in Table 1, followed by sealing and stirring. After reacting in an autoclave at 120° C. for 60 minutes, the reaction solution was cooled and then filtered through a 0.2 μm filter. The filtrate thus obtained was used as a sample. The amino acids and carbohydrates used are as follows.
To 2 mL of a sample, the same amount of a 60% perchloric acid solution was added to deproteinize the sample. The sample was neutralized with 4 mL of an aqueous saturated sodium hydrogen carbonate solution and 0.8 mL of a 0.1% methanol solution of 2,3-diaminonaphthalene was added, and then the mixture was reacted at 4° C. for 16 hours. Next, the reactant was extracted with 4.4 mL of ethyl acetate, concentrated to dryness using an evaporator, dissolved in 5 mL of methanol, and then filtered through a 0.45 μm filter. The filtrate was subjected to high-performance liquid chromatography and 3-DG was quantitatively determined under the following measurement conditions.
Injection amount: 20 μL Column: TSK-GEL, ODS-80Ts (4.6×150 mm, manufactured by TOSOH CORPORATION) Column temperature: 30° C. Mobile phase: 50 mM phosphoric acid:methanol:acetonitrile=7:1.5:1.5 Flow rate: 1 mL/min.
as §1, with “follows: […]” for “follows:”

[1] = gliadin + carbohydrate, protein 0.1 μg/mL, relative to control (AGE-BSA) = 1
[2] = lactalbumin + carbohydrate, protein 10 μg/mL, relative to control (AGE-BSA) = 1
[3] = lactic casein + carbohydrate, protein 1 μg/mL, relative to control (AGE-BSA) = 1
[4] = ovalbumin + carbohydrate, protein 10 μg/mL, relative to control (AGE-BSA) = 1
[5] = soybean casein + carbohydrate, protein 0.1 μg/mL, relative to control (AGE-BSA) = 1
[6] = Test Example 1, lysine + arginine 0.2 g each, carbohydrate 3.40 g each
[7] = Test Example 2, gliadin 0.1 g + carbohydrate 3.4 g
[8] = Test Example 2, lactalbumin 0.05 g + carbohydrate 3.4 g
[9] = Test Example 2, lactic casein 0.01 g + carbohydrate 3.4 g
[10] = Test Example 2, ovalbumin 0.05 g + carbohydrate 3.4 g
[11] = Test Example 2, soybean casein 0.01 g + carbohydrate 3.4 g
[12] = Test Example 1, lysine + arginine 0.2 g each, carbohydrate 3.40 g each, 20 mL phosphate buffer
[13] = Test Example 1, amino acids, compared with the test section 1 containing only sucrose
[14] = Test Example 2, ovalbumin, lactalbumin, gliadin, lactic casein and soybean casein, compared with sections containing sucrose

RAGE agonist activity (human RAGE; [1])	RAGE agonist activity (human RAGE; [2])	RAGE agonist activity (human RAGE; [3])	RAGE agonist activity (human RAGE; [4])	RAGE agonist activity (human RAGE; [5])	Structure (SMILES)	Fluorescent AGEs (fluorescent AGEs; [6])	Fluorescent AGEs (fluorescent AGEs; [7])	Fluorescent AGEs (fluorescent AGEs; [8])	Fluorescent AGEs (fluorescent AGEs; [9])	Fluorescent AGEs (fluorescent AGEs; [10])	Fluorescent AGEs (fluorescent AGEs; [11])	3-DG (3-DG; [12])	3-DG (3-DG; [7])	3-DG (3-DG; [8])	3-DG (3-DG; [9])	3-DG (3-DG; [10])	3-DG (3-DG; [11])	also measured
0.53	0.81	0.53	1.66	0.34	OC[C@H]1O[C@@](CO)(O[C@H]2O[C@H](CO)[C@@H](O)[C@H](O)[C@H]2O)[C@@H](O)[C@@H]1O [Sucrose, reference compound]	79 nmol/1 g of amino acid	649 nmol/1 g of protein	119 nmol/1 g of protein	100 nmol/1 g of protein	168 nmol/1 g of protein	18 nmol/1 g of protein	151 nmol/1 g of amino acid	2,645 nmol/1 g of protein	4,758 nmol/1 g of protein	22,464 nmol/1 g of protein	4,532 nmol/1 g of protein	24,285 nmol/1 g of protein	–
0.51	0.79	0.51	1.42	0.24	OC[C@@H](O)[C@@H](O[C@H]1O[C@H](CO)[C@@H](O)[C@H](O)[C@H]1O)[C@H](O)[C@@H](O)CO [Maltitol]	39 nmol/1 g of amino acid	632 nmol/1 g of protein	105 nmol/1 g of protein	84 nmol/1 g of protein	136 nmol/1 g of protein	20 nmol/1 g of protein	36 nmol/1 g of amino acid	240 nmol/1 g of protein	656 nmol/1 g of protein	2,734 nmol/1 g of protein	523 nmol/1 g of protein	1,446 nmol/1 g of protein	RAGE agonist activity (human RAGE; test sections 2, 5 and 11 (ovalbumin, lactalbumin, lactic casein) compared with sections 1, 4 and 10 containing sucrose): decreased; production of fluorescent AGEs (fluorescent AGEs; [13]): decreased; production of AGEs (fluorescent AGEs; [14]): decreased; production of 3-DG (3-DG; [13]): significantly decreased; production of 3-DG (3-DG; [14]): significantly decreased
